Here are results for one molecule from article PMC6934184, “Selective DNA-PKcs inhibition extends the therapeutic index of localized radiotherapy and chemotherapy” (The Journal of Clinical Investigation, 2019).

Each structure is given as a SMILES string.

In the assay the target is T1, DAPK3 (ZIPK) (Homo sapiens, UniProt O43293).
T1 construct: purchased Thermo Fisher Scientific (Life Technologies) SelectScreen
Nature of the assay: SelectScreen Z'LYTE. It is filed as biochemical. The method in brief:
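NU5455 was profiled across the SelectScreen Broad panel of kinase activity and binding assays. Z'LYTE reactions such as CSF1R ran at apparent Km ATP, while the Adapta CAMK1 assay used ATP listed as 10. Values are given as percent.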

T1 sequence (O43293 whole entry): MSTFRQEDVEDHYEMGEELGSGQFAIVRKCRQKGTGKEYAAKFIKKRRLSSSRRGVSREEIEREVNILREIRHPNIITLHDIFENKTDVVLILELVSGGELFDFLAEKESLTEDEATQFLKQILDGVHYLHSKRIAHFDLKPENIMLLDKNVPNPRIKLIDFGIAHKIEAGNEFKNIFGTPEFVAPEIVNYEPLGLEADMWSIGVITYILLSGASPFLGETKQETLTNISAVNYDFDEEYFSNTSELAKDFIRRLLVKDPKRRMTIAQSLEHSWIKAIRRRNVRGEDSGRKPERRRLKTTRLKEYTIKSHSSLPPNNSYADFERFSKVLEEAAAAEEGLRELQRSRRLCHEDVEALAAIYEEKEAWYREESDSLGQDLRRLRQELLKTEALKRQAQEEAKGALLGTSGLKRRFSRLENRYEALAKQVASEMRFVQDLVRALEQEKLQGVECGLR

Turning to `CN(C(=O)CN1CCOCC1)c1ccc2sc3c(-c4cccc5c(=O)cc(N6CC7CCC(C6)O7)oc45)cccc3c2c1` [NU5455], the inhibition – broadly, the change of the read-out against control, counted positive when it falls – at 1 µM was -3.4%.
